Test results reported in patent US20100063047A1 (KALYPSYS, INC., priority 2008, published 2010).

What follows are compounds tested against T1, human H1 (Homo sapiens, UniProt P35367) (assay: In vitro histamine H1 receptor cell-based aequorin bioluminescence antagonist assay). Settings: not given.
T1 construct: host or cells: CHO-K1, also expressing mitochondrion-targeted aequorin
Experimental: In vitro Histamine Receptor Cell-Based Assays
The cell-based assays utilize an aequorin dependent bioluminescence signal. Doubly-transfected, stable CHO—K1 cell lines expressing human H1 or H4, mitochondrion-targeted aequorin, and (H4 only) human G protein Gα16 are obtained from Perkin-Elmer. Cells are maintained in F12 (Ham's) growth medium, containing 10% (vol./vol.) fetal bovine serum, penicillin (100 IU/mL), streptomycin (0.1 mg/mL), zeocin (0.25 mg/mL) and geneticin (0.40 mg/mL). Cell media components are from Invitrogen, Inc. One day prior to assay, the growth medium is replaced with the same, excluding zeocin and geneticin.
For assay preparation, growth medium is aspirated, and cells are rinsed with calcium-free, magnesium-free phosphate-buffered saline, followed by two to three minute incubation in Versene (Invitrogen, Inc.) at 37° C. Assay medium (DMEM:F12 [50:50], phenol-red free, containing 1 mg/mL protease-free bovine serum albumin) is added to collect the released cells, which are then centrifuged. The cell pellet is re-suspended in assay medium, centrifuged once more, and re-suspended in assay medium to a final density of 5×10^6 cells/mL. Coelenterazine-h dye (500 μM in ethanol) is added to a final concentration of 5 μM, and mixed immediately. The conical tube containing the cells is then wrapped with foil to protect the light-sensitive dye. The cells are incubated for four hours further at room temperature (approximately 21° C.) with end-over-end rotation to keep them in suspension.
Just before assay, the dye-loaded cells are diluted to 0.75×10^6 cells/mL (H1 receptor) or 1.5×10^6 cells/mL (H4 receptor) with additional assay medium. Cells are dispensed to 1536 well micro-titer plates at 3 μL/well. To assay receptor antagonism, 60 nl of 100× concentration test compounds in 100% dimethyl sulfoxide (DMSO) are dispensed to the wells, one compound per well, by passive pin transfer, and the plates are incubated for 15 minutes at room temperature. […] The pipette dispenses 3 μL/well of agonist (histamine, at twice the final concentration, where final concentration is a previously determined EC80) in assay medium, with concurrent bioluminescence detection. Agonist activity of test compounds is excluded by separate assays that measure response to test compounds immediately, without added histamine agonist.
CCD image capture on the Lumilux includes a 5 second baseline read prior to agonist addition, and generally a 40 second read per plate after agonist addition. A decrease in bioluminescence signal (measured either as area-under-the-curve, or maximum signal amplitude minus minimum signal amplitude) correlates with receptor antagonism in a dose dependent manner. The negative control is DMSO lacking any test compound. For antagonist assays, the positive controls are diphenhydramine (2-Diphenylmethoxy-N,N-dimethylethylamine, 10 μM final concentration, H1 receptor) or JNJ7777120 (1-[(5-Chloro-1H-indol-2-yl)carbonyl]-4-methyl-piperazine, 10 μM final concentration, H4 receptor). Efficacy is measured as a percentage of positive control activity.

T1 sequence (P35367 whole entry): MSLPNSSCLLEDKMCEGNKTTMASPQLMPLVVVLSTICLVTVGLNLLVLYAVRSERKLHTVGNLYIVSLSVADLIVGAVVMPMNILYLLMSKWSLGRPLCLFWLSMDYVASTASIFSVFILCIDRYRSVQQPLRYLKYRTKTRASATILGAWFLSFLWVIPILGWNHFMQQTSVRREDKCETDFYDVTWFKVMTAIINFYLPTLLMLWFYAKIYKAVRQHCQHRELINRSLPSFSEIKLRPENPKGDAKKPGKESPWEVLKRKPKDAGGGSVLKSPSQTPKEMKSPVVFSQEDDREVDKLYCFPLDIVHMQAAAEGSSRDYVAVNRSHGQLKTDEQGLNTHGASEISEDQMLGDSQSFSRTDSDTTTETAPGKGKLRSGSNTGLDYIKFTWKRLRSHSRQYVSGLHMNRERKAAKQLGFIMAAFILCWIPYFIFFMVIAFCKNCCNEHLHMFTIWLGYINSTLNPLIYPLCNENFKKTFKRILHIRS

SMILES | EC50 [µM]
COc1ccc(OC)c(CCNc2ncnc3scc(C)c23)c1 [Example 169, N-[2-(2,5-dimethoxyphenyl)ethyl]-5-methylthieno[2,3-d]pyrimidin-4-amine] | > 10

Same assay, conditions: CHO-K1 cells expressing human H1 and aequorin; histamine at EC80; read-out: H1 Antagonist EC50

SMILES | EC50 [µM]
COc1ccc(CCNc2ncnc3sccc23)cc1 [Example 48, N-[2-(4-methoxyphenyl)ethyl]thieno[2,3-d]pyrimidin-4-amine] | > 10
Cc1csc2ncnc(NCCCNC(=O)OC(C)(C)C)c12 [Example 163, tert-butyl N-[3-({5-methylthieno[2,3-d]pyrimidin-4-yl}amino)propyl]carbamate] | > 10
Cc1csc2ncnc(NCC3CCCCC3)c12 [Example 89, N-(cyclohexylmethyl)-5-methylthieno[2,3-d]pyrimidin-4-amine] | > 10
Cc1csc2ncnc(NCC3CCc4cc(Cl)ccc43)c12 (stereo not shown) [Example 30, N-((5-chloro-2,3-dihydro-1H-inden-1-yl)methyl)-5-methylthieno[2,3-d]pyrimidin-4-amine] | > 10
Cc1csc2ncnc(NC3CCCC3)c12 [Example 65, N-cyclopentyl-5-methylthieno[2,3-d]pyrimidin-4-amine] | > 10
CCCC(C)Nc1ncnc2scc(C)c12 (stereo not shown) [Example 66, 5-methyl-N-(pentan-2-yl)thieno[2,3-d]pyrimidin-4-amine] | > 10
Cc1csc2ncnc(NCCc3ccc(Cl)cc3)c12 [Example 46, N-[2-(4-chlorophenyl)ethyl]-5-methylthieno[2,3-d]pyrimidin-4-amine] | > 10
COc1ccc(CNc2ncnc3scc(C)c23)cc1 [Example 124, N-[(4-methoxyphenyl)methyl]-5-methylthieno[2,3-d]pyrimidin-4-amine] | > 10
COc1ccc(CCNc2ccnc3scc(C)c23)cc1 [Example 37, N-(4-methoxyphenethyl)-3-methylthieno[2,3-b]pyridin-4-amine] | > 10
COc1ccccc1CCNc1ncnc2scc(C)c12 [Example 145, N-[2-(2-methoxyphenyl)ethyl]-5-methylthieno[2,3-d]pyrimidin-4-amine] | > 10
CCOC(=O)CC(C)Nc1ncnc2scc(C)c12 (stereo not shown) [Example 110, ethyl 3-({5-methylthieno[2,3-d]pyrimidin-4-yl}amino)butanoate] | > 10
COc1ccc(CCNc2nc(C)nc3sc(C)c(C)c23)cc1OC [Example 296, N-(3,4-dimethoxyphenethyl)-2,5,6-trimethylthieno[2,3-d]pyrimidin-4-amine] | > 10
CC(=O)c1ccc(N2CCN(c3ncnc4scc(C)c34)CC2)cc1 [Example 271, 1-[4-(4-{5-methylthieno[2,3-d]pyrimidin-4-yl}piperazin-1-yl)phenyl]ethan-1-one] | > 10
CCOC(=O)CNc1ncnc2scc(-c3ccccc3)c12 [Example 300, Ethyl 2-(5-phenylthieno[2,3-d]pyrimidin-4-ylamino)acetate] | > 10
Cc1csc2ncnc(NCCOc3ccccc3)c12 [Example 122, 5-methyl-N-(2-phenoxyethyl)thieno[2,3-d]pyrimidin-4-amine] | > 10
Cc1csc2ncnc(N3CCC(NC(=O)OC(C)(C)C)C3)c12 (stereo not shown) [Example 251, tert-butyl N-(1-{5-methylthieno[2,3-d]pyrimidin-4-yl}pyrrolidin-3-yl)carbamate] | > 10
Cc1ccc(CNc2ncnc3scc(C)c23)cc1C [Example 118, N-[(3,4-dimethylphenyl)methyl]-5-methylthieno[2,3-d]pyrimidin-4-amine] | > 10
Cc1csc2ncnc(N3CCN(c4ccc(C(F)(F)F)cc4)CC3)c12 [Example 287, 1-{5-methylthieno[2,3-d]pyrimidin-4-yl}-4-[4-(trifluoromethyl)phenyl]piperazine] | > 10
Cc1csc2ncnc(NCc3ccco3)c12 [Example 75, N-(furan-2-ylmethyl)-5-methylthieno[2,3-d]pyrimidin-4-amine] | > 10
Cc1csc2ncnc(NCCc3ccc(F)cc3)c12 [Example 17] | > 10
Cc1csc2ncnc(CCCc3ccc(Cl)cc3)c12 [Example 23, 4-(3-(4-chlorophenyl)propyl)-5-methylthieno[2,3-d]pyrimidine] | > 10

SMILES | EC50 [µM]
Cc1csc2ncnc(NCc3ccc(Cl)c(Cl)c3)c12 [Example 166, N-[(3,4-dichlorophenyl)methyl]-5-methylthieno[2,3-d]pyrimidin-4-amine] | > 10
Cc1csc2ncnc(N[C@@H](C)c3ccccc3)c12 [Example 96, 5-methyl-N-[(1S)-1-phenylethyl]thieno[2,3-d]pyrimidin-4-amine] | > 10
Cc1csc2ncnc(NC3CCCCC3C)c12 (stereo not shown) [Example 91, 5-methyl-N-(2-methylcyclohexyl)thieno[2,3-d]pyrimidin-4-amine] | > 10
CCc1cc2c(N3CCN(Cc4ccccc4)CC3)ncnc2s1 [Example 14, 4-(4-benzylpiperazin-1-yl)-6-ethylthieno[2,3-d]pyrimidine] | > 10
CCOC(=O)C1CCN(c2ncnc3scc(C)c23)CC1 [Example 44, ethyl 1-{5-methylthieno[2,3-d]pyrimidin-4-yl}piperidine-4-carboxylate] | > 10
Clc1ccc(CCNc2ncnc3sc4c(c23)CCCC4)c(Cl)c1 [Example 313] | > 10
Cc1ccc(C)c(CNc2ncnc3scc(C)c23)c1 [Example 113, N-[(2,5-dimethylphenyl)methyl]-5-methylthieno[2,3-d]pyrimidin-4-amine] | > 10
Cc1csc2ncnc(NCCc3c[nH]c4ccccc34)c12 [Example 155, N-[2-(1H-indol-3-yl)ethyl]-5-methylthieno[2,3-d]pyrimidin-4-amine] | > 10
Cc1csc2nccc(NCCc3ccc(Cl)cc3)c12 [Example 36, N-(4-chlorophenethyl)-3-methylthieno[2,3-b]pyridin-4-amine] | > 10
Cc1csc2ncnc(NCC(C)c3ccccc3)c12 (stereo not shown) [Example 116, 5-methyl-N-(2-phenylpropyl)thieno[2,3-d]pyrimidin-4-amine] | > 10
Cc1csc2ncnc(OCCc3ccc(Cl)cc3)c12 [Example 26, 4-(4-chlorophenethoxy)-5-methylthieno[2,3-d]pyrimidine] | > 10
Cc1csc2ncnc(N3CCN(C)CC3)c12 [Example 192, 1-methyl-4-{5-methylthieno[2,3-d]pyrimidin-4-yl}piperazine] | > 10
Cc1csc2ncnc(N(CCO)Cc3ccccc3)c12 [Example 226, 2-[benzyl({5-methylthieno[2,3-d]pyrimidin-4-yl})amino]ethan-1-ol] | > 10
Cc1csc2ncnc(NCCc3ccc(O)cc3)c12 [Example 121, 4-[2-({5-methylthieno[2,3-d]pyrimidin-4-yl}amino)ethyl]phenol] | > 10
Cc1cccc(N2CCN(c3ncnc4scc(C)c34)CC2C)c1 (stereo not shown) [Example 255, 2-methyl-1-(3-methylphenyl)-4-{5-methylthieno[2,3-d]pyrimidin-4-yl}piperazine] | > 10
Cc1csc2ncnc(NCc3ccc(C(C)(C)C)cc3)c12 [Example 156, N-[(4-tert-butylphenyl)methyl]-5-methylthieno[2,3-d]pyrimidin-4-amine] | > 10
Cc1csc2ncnc(NCC3CCCO3)c12 (stereo not shown) [Example 77, 5-methyl-N-(oxolan-2-ylmethyl)thieno[2,3-d]pyrimidin-4-amine] | > 10
Cc1csc2ncnc(N(CCc3ccccc3)Cc3ccccc3)c12 [Example 277, N-benzyl-5-methyl-N-(2-phenylethyl)thieno[2,3-d]pyrimidin-4-amine] | > 10
Cc1csc2ncnc(NCc3cccc(Cl)c3)c12 [Example 129, N-[(3-chlorophenyl)methyl]-5-methylthieno[2,3-d]pyrimidin-4-amine] | > 10
Cc1csc2ncnc(N3CCSC3)c12 [Example 189, 3-{5-methylthieno[2,3-d]pyrimidin-4-yl}-1,3-thiazolidine] | > 10
Cc1csc2ncnc(NCCc3ccccc3Cl)c12 [Example 148, N-[2-(2-chlorophenyl)ethyl]-5-methylthieno[2,3-d]pyrimidin-4-amine] | > 10
